# Assays:
# [1] = tested on: vancomycin-resistant enterococci; assay: mean geometric MIC, vancomycin-resistant enterococci, broth micro-dilution; type: cell-based, Enterococcus faecium and Enterococcus faecalis; details: Table 3, representative vancomycin-resistant enterococci
# Method: (§1) The antibacterial efficacy of the present teicoplanin derivatives is illustrated by the following tables. The minimal inhibitory concentrations (MICs) were determined using a standard broth micro-dilution assay.
# [2] = tested on: vancomycin-sensitive enterococci; assay: mean geometric MIC, vancomycin-sensitive enterococci, broth micro-dilution; type: cell-based, Enterococcus faecium and Enterococcus faecalis; details: Table 3, representative vancomycin-sensitive enterococci
# Method: as §1
# [3] = tested on: E. f. 180-1; assay: standard broth micro-dilution MIC; type: cell-based; details: Table 2B; strain 180-1
# Method: as §1
# [4] = tested on: E. f. 180; assay: standard broth micro-dilution MIC; type: cell-based; details: Table 2B; strain 180
# Method: as §1
# [5] = tested on: E. f. 2041; assay: standard broth micro-dilution MIC; type: cell-based; details: Table 2B; strain 2041
# Method: as §1
# [6] = tested on: E. f. 276; assay: standard broth micro-dilution MIC; type: cell-based; details: Table 2C; strain 276
# Method: as §1
# [7] = tested on: E. gall. 245; assay: standard broth micro-dilution MIC; type: cell-based; details: Table 2C; strain 245
# Method: as §1
# [8] = tested on: EC14; assay: standard broth micro-dilution MIC; type: cell-based; details: Table 2C; strain EC14
# Method: as §1
# [9] = tested on: M. cat M12; assay: standard broth micro-dilution MIC; type: cell-based; details: Table 2C; strain M12
# Method: as §1
# [10] = tested on: S. aureus 446; assay: standard broth micro-dilution MIC; type: cell-based; details: Table 2A; strain 446
# Method: as §1
# [11] = tested on: S. aureus 447; assay: standard broth micro-dilution MIC; type: cell-based; details: Table 2A; strain 447
# Method: as §1
# [12] = tested on: S. aureus 489; assay: standard broth micro-dilution MIC; type: cell-based; details: Table 2A; strain 489
# Method: as §1
# [13] = tested on: S. aureus 491; assay: standard broth micro-dilution MIC; type: cell-based; details: Table 2A; strain 491
# Method: as §1
# [14] = tested on: S. aureus S13E; assay: standard broth micro-dilution MIC; type: cell-based; details: Table 2A; strain S13E
# Method: as §1
# [15] = tested on: S. aureus SA1199B; assay: standard broth micro-dilution MIC; type: cell-based; details: Table 2B; strain SA1199B
# Method: as §1
# [16] = tested on: S. aureus SA1199R; assay: standard broth micro-dilution MIC; type: cell-based; details: Table 2B; strain SA1199R
# Method: as §1
# [17] = tested on: S. aureus SA1199; assay: standard broth micro-dilution MIC; type: cell-based; details: Table 2A; strain SA1199
# Method: as §1
# [18] = tested on: S. aureus X400; assay: standard broth micro-dilution MIC; type: cell-based; details: Table 2A; strain X400
# Method: as §1
# [19] = tested on: S. aureus X778; assay: standard broth micro-dilution MIC; type: cell-based; details: Table 2A; strain X778
# Method: as §1
# [20] = tested on: S. epi 270; assay: standard broth micro-dilution MIC; type: cell-based; details: Table 2B; strain 270
# Method: as §1
# [21] = tested on: S. h. 105; assay: standard broth micro-dilution MIC; type: cell-based; details: Table 2B; strain 105
# Method: as §1
# [22] = tested on: S. h. 415; assay: standard broth micro-dilution MIC; type: cell-based; details: Table 2B; strain 415
# Method: as §1
# [23] = tested on: St. pneumo P1; assay: standard broth micro-dilution MIC; type: cell-based; details: Table 2C; strain P1
# Method: as §1
# [24] = tested on: St. pyro C203; assay: standard broth micro-dilution MIC; type: cell-based; details: Table 2C; strain C203
# Method: as §1
Compound,Resist. MIC [1] [µg/mL],Sens. MIC [2] [µg/mL],MIC E. f. 180-1 [3],MIC E. f. 180 [4] [µg/mL],MIC E. f. 2041 [5],MIC E. f. 276 [6] [µg/mL],MIC E. gall. 245 [7] [µg/mL],MIC EC14 [8] [µg/mL],MIC S. aureus 446 [10] [µg/mL],MIC S. aureus 447 [11] [µg/mL],MIC S. aureus 489 [12] [µg/mL],MIC S. aureus 491 [13] [µg/mL],MIC S. aureus S13E [14] [µg/mL],MIC S. aureus X400 [18] [µg/mL],MIC S. aureus X778 [19] [µg/mL],MIC S. epi 270 [20],MIC S. h. 105 [21] [µg/mL],MIC S. h. 415 [22] [µg/mL],MIC St. pneumo P1 [23],MIC St. pyro C203 [24],other results
"CC(=O)NC1C(OC2c3ccc(c(Cl)c3)Oc3cc4cc(c3OC3OC(CO)C(O)C(O)C3NCc3ccc(-c5ccccc5)cc3)Oc3ccc(cc3Cl)CC3NC(=O)C(N)c5ccc(O)c(c5)Oc5cc(O)cc(c5)C(NC3=O)C(=O)NC4C(=O)NC3C(=O)NC2C(=O)NC(C(=O)O)c2cc(O)cc(OC4OC(CO)C(O)C(O)C4O)c2-c2cc3ccc2O)OC(CO)C(O)C1O (stereo not shown) [Example 3, Deacyl Teicoplanin, N^Glu-(4-phenylbenzyl) Derivative]",> 64,4.6,–,–,–,–,–,–,–,–,–,–,–,–,–,–,–,–,–,–,–
CC(=O)NC1C(OC2c3ccc(c(Cl)c3)Oc3cc4cc(c3OC3OC(CO)C(O)C(O)C3NCc3ccc(Oc5ccccc5)cc3)Oc3ccc(cc3Cl)CC3NC(=O)C(NCc5ccc(Oc6ccccc6)cc5)c5ccc(O)c(c5)Oc5cc(O)cc(c5)C(NC3=O)C(=O)NC4C(=O)NC3C(=O)NC2C(=O)NC(C(=O)O)c2cc(O)cc(OC4OC(CO)C(O)C(O)C4O)c2-c2cc3ccc2O)OC(CO)C(O)C1O (stereo not shown) [Example 10],1.7,0.19,≤ .06 µg/mL,0.25,≤ .06 µg/mL,0.5,0.25,> 64,0.25,1,0.5,1,2,0.25,0.5,0.5 µg/mL,> 64,8,0.125 µg/mL,≤ .06 µg/mL,MIC M. cat M12 [9]: ≤ .06 µg/mL; MIC S. aureus SA1199B [15]: 0.5 µg/mL; MIC S. aureus SA1199R [16]: ≤ .06 µg/mL; MIC S. aureus SA1199 [17]: 2 µg/mL
CC(=O)NC1C(OC2c3ccc(c(Cl)c3)Oc3cc4cc(c3OC3OC(CO)C(O)C(O)C3NCc3ccc(C=Cc5ccccc5)cc3)Oc3ccc(cc3Cl)CC3NC(=O)C(NCc5ccc(C=Cc6ccccc6)cc5)c5ccc(O)c(c5)Oc5cc(O)cc(c5)C(NC3=O)C(=O)NC4C(=O)NC3C(=O)NC2C(=O)NC(C(=O)O)c2cc(O)cc(OC4OC(CO)C(O)C(O)C4O)c2-c2cc3ccc2O)OC(CO)C(O)C1O (stereo not shown) [Example 8],0.59,0.22,0.125 µg/mL,0.25,0.125 µg/mL,0.5,0.25,> 64,1,1,0.25,1,2,1,2,1 µg/mL,> 64,> 64,0.25 µg/mL,0.125 µg/mL,MIC M. cat M12 [9]: 0.25 µg/mL; MIC S. aureus SA1199B [15]: 2 µg/mL; MIC S. aureus SA1199R [16]: 0.125 µg/mL; MIC S. aureus SA1199 [17]: 4 µg/mL
CC(=O)NC1C(OC2c3ccc(c(Cl)c3)Oc3cc4cc(c3OC3OC(CO)C(O)C(O)C3NCc3cccc(Oc5ccccc5)c3)Oc3ccc(cc3Cl)CC3NC(=O)C(NCc5cccc(Oc6ccccc6)c5)c5ccc(O)c(c5)Oc5cc(O)cc(c5)C(NC3=O)C(=O)NC4C(=O)NC3C(=O)NC2C(=O)NC(C(=O)O)c2cc(O)cc(OC4OC(CO)C(O)C(O)C4O)c2-c2cc3ccc2O)OC(CO)C(O)C1O (stereo not shown) [Example 11],3.4,0.11,0.25 µg/mL,1,≤ .06 µg/mL,0.25,0.125,> 64,2,1,1,0.25,2,0.5,0.25,≤ .06 µg/mL,> 64,16,≤ .06 µg/mL,≤ .06 µg/mL,MIC M. cat M12 [9]: ≤ .06 µg/mL; MIC S. aureus SA1199B [15]: 0.25 µg/mL; MIC S. aureus SA1199R [16]: ≤ .06 µg/mL; MIC S. aureus SA1199 [17]: 0.5 µg/mL
CC(=O)NC1C(OC2c3ccc(c(Cl)c3)Oc3cc4cc(c3OC3OC(CO)C(O)C(O)C3NCc3ccc(C=Cc5ccccc5)cc3)Oc3ccc(cc3Cl)CC3NC(=O)C(N)c5ccc(O)c(c5)Oc5cc(O)cc(c5)C(NC3=O)C(=O)NC4C(=O)NC3C(=O)NC2C(=O)NC(C(=O)O)c2cc(O)cc(OC4OC(CO)C(O)C(O)C4O)c2-c2cc3ccc2O)OC(CO)C(O)C1O (stereo not shown) [Example 7],19.03,0.76,1 µg/mL,64,0.25 µg/mL,–,–,> 128,2,2,0.25,1,0.5,0.5,2,2 µg/mL,0.25,32,≤ .06 µg/mL,0.25 µg/mL,–
CC(=O)NC1C(OC2c3ccc(c(Cl)c3)Oc3cc4cc(c3OC3OC(CO)C(O)C(O)C3NCc3ccc(OC(F)(F)F)cc3)Oc3ccc(cc3Cl)CC3NC(=O)C(NCc5ccc(OC(F)(F)F)cc5)c5ccc(O)c(c5)Oc5cc(O)cc(c5)C(NC3=O)C(=O)NC4C(=O)NC3C(=O)NC2C(=O)NC(C(=O)O)c2cc(O)cc(OC4OC(CO)C(O)C(O)C4O)c2-c2cc3ccc2O)OC(CO)C(O)C1O (stereo not shown) [Example 13],45,0.25,–,4,–,–,–,> 128,1,1,0.5,0.5,1,0.5,1,0.5 µg/mL,32,8,0.05 µg/mL,≤ .06 µg/mL,–
"Deacyl Teicoplanin, Bis(10-undecen-1-yl) Derivative [Example 4]",1.2,1.5,–,8,–,–,–,> 128,4,8,2,4,2,2,4,2 µg/mL,16,16,1 µg/mL,0.5 µg/mL,–
CC(=O)NC1C(OC2c3ccc(c(Cl)c3)Oc3cc4cc(c3OC3OC(CO)C(O)C(O)C3NCc3ccc(OC(F)(F)F)cc3)Oc3ccc(cc3Cl)CC3NC(=O)C(N)c5ccc(O)c(c5)Oc5cc(O)cc(c5)C(NC3=O)C(=O)NC4C(=O)NC3C(=O)NC2C(=O)NC(C(=O)O)c2cc(O)cc(OC4OC(CO)C(O)C(O)C4O)c2-c2cc3ccc2O)OC(CO)C(O)C1O (stereo not shown) [Example 14],> 32,5.28,8 µg/mL,> 128,8 µg/mL,–,–,> 128,4,8,2,2,2,2,4,2 µg/mL,1,> 128,1 µg/mL,1 µg/mL,–
